Assay [1] relates to Serine/threonine-protein kinase B-raf (Homo sapiens), P15056 [V600E]. Description: Inhibition of BRAF V600E mutant assessed as reduction in ERK phosphorylation in human A375P cells after 24 hrs by Western blot analysis. Format: cell-based. In general terms: Immunoblotting shows a protein as a band on a membrane.
Assay [2] can be described thus: Antiproliferative activity against human UO31 cells assessed as cell growth at 10^-6 M after 48 hrs by sulforhodamine B assay. As to conditions: UO-31, 48 h, read-out: Activity. The assay is classed as functional. For orientation: Sulforhodamine B stains cellular protein and so reports cell mass.
A further assay has as its system A549. The assay is described as follows: Antiproliferative activity against human A549/ATCC cells assessed as cell growth at 10^-6 M after 48 hrs by sulforhodamine B assay. The assay is classed as functional. The note with it: A549, 48 h, read-out: Activity.
Assay [3] addresses Serine/threonine-protein kinase B-raf (Homo sapiens) (UniProt P15056). The assay is described as follows: Inhibition of human BRAF at 10 uM measured after 40 mins by scintillation counting.
In the next assay the test system is SK-MEL-28. The assay is described as follows: Antiproliferative activity against human SK-MEL-28 cells assessed as cell growth at 10^-6 M after 48 hrs by sulforhodamine B assay. The assay is classed as functional. The note with it: SK-MEL-28, 48 h, read-out: Activity.
A short description of assay [4]: Antiproliferative activity against human LOXIMVI cells assessed as cell growth at 10^-8 M after 48 hrs by sulforhodamine B assay. The assay is classed as functional. As to conditions: LOX IMVI, read-out: Activity.
Assay [5] has as its target Proto-oncogene tyrosine-protein kinase Src (Homo sapiens) (UniProt P12931). Description: Inhibition of human C-Src at 10 uM measured after 40 mins by scintillation counting.
Assay [6] deals with Hepatocyte growth factor receptor (Homo sapiens) (UniProt P08581). The assay is described as follows: Inhibition of human C-Met at 10 uM measured after 40 mins by scintillation counting.
The next assay concerns A498. Description: Antiproliferative activity against human A498 cells assessed as cell growth at 10^-7 M after 48 hrs by sulforhodamine B assay. The assay is classed as functional. The note with it: A498, 48 h, read-out: Activity.
The nature of assay [7]: Antiproliferative activity against human DU145 cells assessed as growth inhibition after 48 hrs by sulforhodamine B assay. Format: functional. The note with it: DU-145, 48 h; for CC50: read-out: LC50 (the source's name).
Assay [8] is described as follows: Antiproliferative activity against human SNB75 cells assessed as cell growth at 10^-6 M after 48 hrs by sulforhodamine B assay. The assay is classed as functional. The note with it: SNB-75, 48 h, read-out: Activity.
Assay [9] deals with Aurora kinase A (Homo sapiens) (UniProt O14965). Description: Inhibition of human Aurora-A at 10 uM measured after 40 mins by scintillation counting.
The test system of a further assay is ACHN. The assay is described as follows: Antiproliferative activity against human ACHN cells assessed as cell growth at 10^-7 M after 48 hrs by sulforhodamine B assay. The assay is classed as functional. As to conditions: read-out: Activity.
For assay [10], the target named is Tyrosine-protein kinase ABL1 (Homo sapiens) (UniProt P00519). Description: Inhibition of human ABL1 at 10 uM measured after 40 mins by scintillation counting.
The test system of the next assay is MDA-MB-435. The assay is described as follows: Antiproliferative activity against human MDA-MB-435 cells assessed as cell growth at 10^-7 M after 48 hrs by sulforhodamine B assay. As to conditions: MDA-MB-435, 48 h, read-out: Activity. Format: functional.
The nature of assay [11]: Antiproliferative activity against human NCI-ADR-RES cells assessed as cell growth at 10^-7 M after 48 hrs by sulforhodamine B assay. Format: functional. The note with it: read-out: Activity.
Assay [12] concerns the target Activin receptor type-1-like (Homo sapiens) (UniProt P37023). Description: Inhibition of human ALK1 at 10 uM measured after 40 mins by scintillation counting.
For assay [13], the system named is MCF7. Description: Antiproliferative activity against human MCF7 cells assessed as cell growth at 10^-7 M after 48 hrs by sulforhodamine B assay. Format: functional. The note with it: MCF7, 48 h, read-out: Activity.
For assay [14], the system named is MCF7. The assay is described as follows: Antiproliferative activity against human MCF7 cells assessed as growth inhibition after 48 hrs by sulforhodamine B assay. The note with it: MCF7, 48 h; for CC50: read-out: LC50 (the source's name). Format: functional.
The nature of assay [15]: Antiproliferative activity against human BT549 cells assessed as cell growth at 10^-4 M after 48 hrs by sulforhodamine B assay. Format: functional. The note with it: BT-549, 48 h, read-out: Activity.
Assay [16] concerns the target Fibroblast growth factor receptor 3 (Homo sapiens) (UniProt P22607). Description: Inhibition of human FGFR3 at 10 uM measured after 40 mins by scintillation counting.
Assay [17] in a line: Antiproliferative activity against human HCT116 cells assessed as cell growth at 10^-7 M after 48 hrs by sulforhodamine B assay. The assay is classed as functional. As to conditions: HCT-116, 48 h, read-out: Activity.
Assay [18] deals with Serine/threonine-protein kinase B-raf (Homo sapiens), P15056 [V600E]. Description: Inhibition of BRAF V600E mutant assessed as reduction in MEK phosphorylation in human A375P cells after 24 hrs by Western blot analysis. Format: cell-based.
The test system of the next assay is U-251. The assay is described as follows: Antiproliferative activity against human U251 cells assessed as cell growth at 10^-8 M after 48 hrs by sulforhodamine B assay. Format: functional. The note with it: U-251, 48 h, read-out: Activity.
A further assay deals with MDA-MB-468. Description: Antiproliferative activity against human MDA-MB-468 cells assessed as cell growth at 10^-7 M after 48 hrs by sulforhodamine B assay. As to conditions: MDA-MB-468, 48 h, read-out: Activity. The assay is classed as functional.
In assay [19] the target is Epidermal growth factor receptor (Homo sapiens) (UniProt P00533). Description: Inhibition of human EGFR at 10 uM measured after 40 mins by scintillation counting.
The test system of another assay is NCI-H23. Description: Antiproliferative activity against human NCI-H23 cells assessed as cell growth at 10^-6 M after 48 hrs by sulforhodamine B assay. Format: functional. As to conditions: NCI-H23, 48 h, read-out: Activity.
A short description of assay [20]: Antiproliferative activity against human UO31 cells assessed as cell growth at 10^-7 M after 48 hrs by sulforhodamine B assay. The assay is classed as functional. As to conditions: UO-31, 48 h, read-out: Activity.

Active and inactive are the calls of the source. No cut-off for these calls is given here. A value given as a limit tells only on which side of the number the result lay.

Sequence of Serine/threonine-protein kinase B-raf (Homo sapiens), P15056 [V600E] (P15056 whole entry V600E): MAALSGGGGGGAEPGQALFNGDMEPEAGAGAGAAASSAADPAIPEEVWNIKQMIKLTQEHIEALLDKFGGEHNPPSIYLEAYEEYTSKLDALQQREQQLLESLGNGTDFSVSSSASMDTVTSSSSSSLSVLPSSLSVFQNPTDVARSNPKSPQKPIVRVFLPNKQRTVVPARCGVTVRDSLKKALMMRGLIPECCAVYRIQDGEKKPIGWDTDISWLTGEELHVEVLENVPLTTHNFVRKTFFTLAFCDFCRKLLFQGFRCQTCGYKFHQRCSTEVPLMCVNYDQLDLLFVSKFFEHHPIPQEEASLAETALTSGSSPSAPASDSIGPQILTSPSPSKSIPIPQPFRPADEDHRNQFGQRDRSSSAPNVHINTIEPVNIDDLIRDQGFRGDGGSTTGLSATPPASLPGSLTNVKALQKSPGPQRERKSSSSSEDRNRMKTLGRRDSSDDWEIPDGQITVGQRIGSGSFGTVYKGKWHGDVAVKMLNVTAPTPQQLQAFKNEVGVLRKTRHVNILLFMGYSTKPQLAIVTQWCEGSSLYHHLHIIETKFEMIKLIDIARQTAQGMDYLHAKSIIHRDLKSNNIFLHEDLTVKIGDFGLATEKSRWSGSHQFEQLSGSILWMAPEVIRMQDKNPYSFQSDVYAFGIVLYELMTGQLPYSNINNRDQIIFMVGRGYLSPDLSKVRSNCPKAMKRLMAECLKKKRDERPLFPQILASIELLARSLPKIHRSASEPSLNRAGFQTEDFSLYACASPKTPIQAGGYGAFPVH
Sequence of Fibroblast growth factor receptor 3 (Homo sapiens) (P22607 23-806 limits assumed): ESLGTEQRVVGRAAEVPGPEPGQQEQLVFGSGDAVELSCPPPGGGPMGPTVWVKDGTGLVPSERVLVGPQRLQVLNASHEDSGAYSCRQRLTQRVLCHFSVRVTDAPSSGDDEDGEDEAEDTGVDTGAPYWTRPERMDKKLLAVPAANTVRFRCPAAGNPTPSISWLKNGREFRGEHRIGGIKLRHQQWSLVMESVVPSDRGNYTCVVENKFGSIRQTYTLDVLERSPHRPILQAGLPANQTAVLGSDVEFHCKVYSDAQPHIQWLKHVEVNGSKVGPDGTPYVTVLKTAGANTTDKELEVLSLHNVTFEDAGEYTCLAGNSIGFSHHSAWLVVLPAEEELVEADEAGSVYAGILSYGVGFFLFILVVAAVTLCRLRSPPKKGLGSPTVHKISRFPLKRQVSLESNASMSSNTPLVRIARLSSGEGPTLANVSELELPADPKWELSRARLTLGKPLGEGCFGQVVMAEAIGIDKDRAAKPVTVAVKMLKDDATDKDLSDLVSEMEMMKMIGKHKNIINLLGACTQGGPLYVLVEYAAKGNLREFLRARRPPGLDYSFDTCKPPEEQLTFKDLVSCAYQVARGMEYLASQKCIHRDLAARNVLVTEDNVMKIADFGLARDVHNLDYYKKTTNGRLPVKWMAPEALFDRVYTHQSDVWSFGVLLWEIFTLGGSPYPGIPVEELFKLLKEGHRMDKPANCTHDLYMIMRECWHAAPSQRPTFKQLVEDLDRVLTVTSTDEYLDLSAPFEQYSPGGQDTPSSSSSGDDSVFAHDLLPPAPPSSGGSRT
Sequence of Epidermal growth factor receptor (Homo sapiens) (P00533 whole entry): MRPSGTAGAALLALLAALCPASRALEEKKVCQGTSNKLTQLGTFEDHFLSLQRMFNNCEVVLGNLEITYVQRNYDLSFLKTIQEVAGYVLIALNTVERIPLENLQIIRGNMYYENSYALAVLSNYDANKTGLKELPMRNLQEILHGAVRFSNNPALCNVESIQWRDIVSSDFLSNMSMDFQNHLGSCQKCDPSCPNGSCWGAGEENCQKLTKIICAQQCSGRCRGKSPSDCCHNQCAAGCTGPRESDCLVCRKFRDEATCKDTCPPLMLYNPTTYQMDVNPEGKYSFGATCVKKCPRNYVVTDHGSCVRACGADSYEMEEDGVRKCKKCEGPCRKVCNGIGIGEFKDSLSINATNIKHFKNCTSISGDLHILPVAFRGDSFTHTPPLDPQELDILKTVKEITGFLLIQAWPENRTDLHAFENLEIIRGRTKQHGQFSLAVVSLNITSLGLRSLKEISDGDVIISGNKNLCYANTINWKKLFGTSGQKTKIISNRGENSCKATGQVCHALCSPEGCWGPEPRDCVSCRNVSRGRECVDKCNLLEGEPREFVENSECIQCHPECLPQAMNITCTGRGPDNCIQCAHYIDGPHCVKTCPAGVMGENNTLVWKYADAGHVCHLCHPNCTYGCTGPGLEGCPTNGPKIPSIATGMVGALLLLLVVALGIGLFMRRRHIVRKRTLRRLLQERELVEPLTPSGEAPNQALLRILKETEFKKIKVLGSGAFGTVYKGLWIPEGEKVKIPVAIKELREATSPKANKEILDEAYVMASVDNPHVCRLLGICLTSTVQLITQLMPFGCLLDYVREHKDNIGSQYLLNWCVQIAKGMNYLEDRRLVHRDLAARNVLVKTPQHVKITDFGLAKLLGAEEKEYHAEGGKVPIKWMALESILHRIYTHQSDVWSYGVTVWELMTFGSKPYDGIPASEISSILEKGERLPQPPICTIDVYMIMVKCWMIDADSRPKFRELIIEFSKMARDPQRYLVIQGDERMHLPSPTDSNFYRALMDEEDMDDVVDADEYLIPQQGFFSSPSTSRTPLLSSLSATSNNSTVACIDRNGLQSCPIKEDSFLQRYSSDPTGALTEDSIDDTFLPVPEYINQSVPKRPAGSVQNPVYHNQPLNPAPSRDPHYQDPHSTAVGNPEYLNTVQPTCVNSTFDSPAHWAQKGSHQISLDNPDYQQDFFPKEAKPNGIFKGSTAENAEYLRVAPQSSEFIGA
Sequence of Tyrosine-protein kinase ABL1 (Homo sapiens) (P00519 whole entry): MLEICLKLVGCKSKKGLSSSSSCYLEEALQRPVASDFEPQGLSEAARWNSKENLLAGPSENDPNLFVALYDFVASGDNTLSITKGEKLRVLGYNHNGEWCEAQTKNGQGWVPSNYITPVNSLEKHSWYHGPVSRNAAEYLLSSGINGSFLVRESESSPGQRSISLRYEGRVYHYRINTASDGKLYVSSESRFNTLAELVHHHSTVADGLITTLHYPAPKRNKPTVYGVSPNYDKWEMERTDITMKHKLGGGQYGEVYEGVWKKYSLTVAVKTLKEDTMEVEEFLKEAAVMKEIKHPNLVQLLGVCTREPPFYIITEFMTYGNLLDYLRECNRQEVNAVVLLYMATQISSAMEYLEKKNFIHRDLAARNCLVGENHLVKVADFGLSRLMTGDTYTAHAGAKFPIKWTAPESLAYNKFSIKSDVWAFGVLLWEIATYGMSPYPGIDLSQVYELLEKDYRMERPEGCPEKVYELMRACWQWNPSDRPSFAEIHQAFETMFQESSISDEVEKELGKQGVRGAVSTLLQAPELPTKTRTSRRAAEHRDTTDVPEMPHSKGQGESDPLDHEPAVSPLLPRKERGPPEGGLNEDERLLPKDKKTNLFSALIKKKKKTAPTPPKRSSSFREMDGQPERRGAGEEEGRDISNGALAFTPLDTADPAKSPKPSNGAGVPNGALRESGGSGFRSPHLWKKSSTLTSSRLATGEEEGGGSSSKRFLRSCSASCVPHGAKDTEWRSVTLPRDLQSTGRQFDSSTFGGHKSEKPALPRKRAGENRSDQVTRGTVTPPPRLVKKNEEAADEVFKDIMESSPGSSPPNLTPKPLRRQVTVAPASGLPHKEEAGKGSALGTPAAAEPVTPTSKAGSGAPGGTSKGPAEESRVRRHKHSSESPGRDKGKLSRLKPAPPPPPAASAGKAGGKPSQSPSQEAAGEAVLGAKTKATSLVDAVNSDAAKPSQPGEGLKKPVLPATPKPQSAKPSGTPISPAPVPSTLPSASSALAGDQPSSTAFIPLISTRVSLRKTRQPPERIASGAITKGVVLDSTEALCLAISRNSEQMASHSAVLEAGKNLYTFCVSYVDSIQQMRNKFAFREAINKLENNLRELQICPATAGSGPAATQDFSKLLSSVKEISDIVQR
Sequence of Proto-oncogene tyrosine-protein kinase Src (Homo sapiens) (P12931 2-536 limits assumed): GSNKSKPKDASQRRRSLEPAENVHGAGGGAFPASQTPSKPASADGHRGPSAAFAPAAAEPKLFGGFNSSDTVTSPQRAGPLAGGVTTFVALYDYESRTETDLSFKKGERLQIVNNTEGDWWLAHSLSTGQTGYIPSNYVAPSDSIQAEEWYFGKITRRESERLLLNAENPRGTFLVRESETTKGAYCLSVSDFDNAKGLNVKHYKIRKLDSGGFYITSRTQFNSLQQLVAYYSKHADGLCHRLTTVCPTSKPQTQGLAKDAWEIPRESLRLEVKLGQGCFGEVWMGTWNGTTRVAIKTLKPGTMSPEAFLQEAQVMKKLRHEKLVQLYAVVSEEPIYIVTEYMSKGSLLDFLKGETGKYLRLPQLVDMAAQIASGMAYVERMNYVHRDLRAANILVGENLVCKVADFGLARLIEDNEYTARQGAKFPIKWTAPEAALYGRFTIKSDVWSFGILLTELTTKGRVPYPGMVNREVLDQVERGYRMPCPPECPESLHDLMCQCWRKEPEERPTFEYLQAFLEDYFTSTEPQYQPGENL
Sequence of Aurora kinase A (Homo sapiens) (O14965 whole entry): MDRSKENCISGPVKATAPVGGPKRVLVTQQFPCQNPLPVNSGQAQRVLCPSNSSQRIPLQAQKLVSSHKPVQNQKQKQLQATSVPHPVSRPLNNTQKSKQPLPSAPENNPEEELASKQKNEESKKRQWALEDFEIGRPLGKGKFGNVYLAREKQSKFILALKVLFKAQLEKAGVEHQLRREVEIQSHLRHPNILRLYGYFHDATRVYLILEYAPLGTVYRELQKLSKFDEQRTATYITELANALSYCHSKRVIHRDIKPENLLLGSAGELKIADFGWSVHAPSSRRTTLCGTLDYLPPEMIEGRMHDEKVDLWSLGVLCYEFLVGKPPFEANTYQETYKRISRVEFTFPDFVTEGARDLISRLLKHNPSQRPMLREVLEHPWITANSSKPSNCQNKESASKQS
Sequence of Serine/threonine-protein kinase B-raf (Homo sapiens) (P15056 whole entry): as the sequence (P15056 whole entry V600E) above, with E600V counted along it

A word on the inhibition: it is the percentage by which the read-out fell short of the control. As usually defined, the GI50 is the concentration that inhibits growth by half. As a reminder, the TGI is the concentration at which net growth stops. On to `CNC(=O)c1cc(Oc2ccc3nc(NC(=O)Nc4cc(C(F)(F)F)cc(C(F)(F)F)c4)sc3c2)ccn1`, for which the inhibition result in assay [1] was “Active”. Besides, the growth at 1 µM in [2] was determined as 65%; with A549, 68%; in the assay with SK-MEL-28 it was 66%; in [8], 50%; in the assay with NCI-H23 it was 36%. Also, the inhibition in assay [3], in assay [5], in assay [6], in [9], in assay [10] and in assay [12] was under 40% each time. In addition, the inhibition in [16] is under 40%; in assay [18] it was “Dose-dependent effect”; in assay [19], under 40%. Further, the growth at 0.01 µM in assay [4] was found to be 93%; in the assay with U-251, 103%. In addition, the growth at 0.1 µM worked out at 111% in the assay on A498; 99% with ACHN; 95% with MDA-MB-435; 98% in assay [11]; 87% in the assay on MCF7 [13]; 105% in assay [17]. The growth at 0.1 µM is 91% in the assay on MDA-MB-468 and 94% in assay [20]. The GI50 in [7] came to 1.25 µM; in the assay with MCF7 [14], 1.05 µM. The TGI in [7] was determined as 2.98 µM; with MCF7 [14] it was 2.93 µM. The CC50 in [7] was found to be 7.14 µM; in the assay on MCF7 [14] it was 8.23 µM. The growth at 100 µM in assay [15] is -63%.

Turning to `CNC(=O)c1cc(Oc2ccc3nc(NC(=O)c4cc(C(F)(F)F)cc(C(F)(F)F)c4)sc3c2)ccn1`, the growth at 1 µM in [2] turned out to be 78%; in the assay on A549, 105%; with SK-MEL-28 it was 87%; in [8] it was 89%; in the assay on NCI-H23 it was 89%. For the same compound, the growth at 0.01 µM in assay [4] was found to be 97%; in the assay on U-251, 98%. Further, the growth at 0.1 µM turned out to be 67% in the assay with A498; 100% in the assay with ACHN; 92% with MDA-MB-435; 103% in [11]; 89% in the assay on MCF7 [13]; 104% in assay [17]. In addition, the growth at 0.1 µM in the assay on MDA-MB-468 worked out at 96%; in [20] it was 86%. The values for the GI50 (in [7]; in the assay with MCF7 [14]) were 3.69 µM and 3.37 µM, respectively. Also, the TGI came out at 15.9 µM in [7] and 18 µM with MCF7 [14]. Further, the CC50 is 65 µM in assay [7] and over 100 µM with MCF7 [14]. In assay [15], the growth at 100 µM is -48%.

As for `CNC(=O)c1cc(Oc2ccc3nc(NC(=O)Nc4ccc(Cl)c(C(F)(F)F)c4)sc3c2)ccn1`, the growth at 1 µM in [2] is 108%; in the assay on A549, 90%; in the assay on SK-MEL-28, 78%; in assay [8], 78%; with NCI-H23, 88%. For the same compound, the growth at 0.01 µM in [4] worked out at 99%; in the assay on U-251, 102%. Moreover, the growth at 0.1 µM in the assay with A498 worked out at 97%; in the assay on ACHN, 102%; in the assay on MDA-MB-435, 92%; in [11], 113%; with MCF7 [13], 89%; in assay [17], 99%. For the same compound, the growth at 0.1 µM was 85% with MDA-MB-468 and 107% in assay [20]. In addition, the values for the GI50 (in assay [7]; in the assay with MCF7 [14]) were 2.24 µM and 1.72 µM, respectively. Besides, the CC50 (in assay [7]; with MCF7 [14]) was over 100 µM throughout. Further, the growth at 100 µM in assay [15] is -6%.

As for `CNC(=O)c1cc(Oc2ccc3nc(NC(=O)Nc4ccc(Cl)c(Cl)c4)sc3c2)ccn1`, the growth at 1 µM was 106% in [2]; 93% with A549; 88% in the assay on SK-MEL-28; 87% in assay [8]; 88% in the assay with NCI-H23. Moreover, the growth at 0.01 µM was 95% in assay [4] and 98% with U-251. In addition, the growth at 0.1 µM with A498 came out at 110%; in the assay with ACHN it was 94%; with MDA-MB-435, 95%; in [11] it was 98%; in the assay on MCF7 [13], 89%; in assay [17], 97%. For the same compound, the growth at 0.1 µM in the assay with MDA-MB-468 is 91%; in assay [20], 100%. The GI50 in [7] came out at 2.45 µM; in the assay on MCF7 [14] it was 2.65 µM. In addition, the concentration for total growth inhibition (TGI) in assay [7] is 6.29 µM; in the assay with MCF7 [14], over 100 µM. Further, the CC50 (in assay [7]; with MCF7 [14]) was over 100 µM throughout. In assay [15], the growth at 100 µM turned out to be 6%.

In the case of `CNC(=O)c1cc(Oc2ccc(NC(=O)Nc3ccc(Cl)c(C(F)(F)F)c3)cc2)ccn1` [SORAFENIB], in [7], the GI50 was 3.16 µM, the TGI amounted to 10 µM and the CC50 was 50.1 µM. In addition, in the assay on MCF7 [14], the GI50 amounted to 2.51 µM, the total growth inhibition concentration (TGI) was determined as 7.94 µM and the CC50 was 50.1 µM.

The values are drawn from ChEMBL document CHEMBL3797052 (Eur J Med Chem, 2016).
